Tested on: Plasmodium berghei
Experiment: Luciferase/luciferin-expressing antifolate-resistant parasites were used to infect a culture of HepG2 cells that were pre-incubated with compounds. Infected hepatocytes emit light due to the luciferase reaction. Assay results are presented as the percent inhibition of light emission compared to control. […]
Format: functional
Conditions: sporozoite; for IC90: read-out: LUCIFERASE INFECTION ASSAY - IC90

Row | Compound | IC90 [µM] | further results
1 | CCOc1ccc(-c2nc(CSc3nc(C)nc4sc5c(c34)CCCC5)cs2)cc1OC | > 10 | IC50 (FFLUC_HILL_SLOPE 22.7, FFLUC_R_SQUARED 0.174, read-out: LUCIFERASE INFECTION ASSAY - IC50): > 10 µM
2 | CC(C)[C@H](NS(=O)(=O)c1ccc2c(c1)OCCO2)C(=O)Nc1nc(-c2ccc(F)c(F)c2)cs1 | > 10 | IC50 (FFLUC_HILL_SLOPE 26.7, FFLUC_R_SQUARED 0.287, HEPG2TOX_HILL_SLOPE 3.72, HEPG2TOX_R_SQUARED 0.958, PBLUC_HILL_SLOPE 3.86, PBLUC_R_SQUARED 0.4, read-out: LUCIFERASE INFECTION ASSAY - IC50): 6.43 µM
3 | CCOC(=O)c1cc(C#N)c(Sc2n[nH]c(=O)n2Cc2ccc(C(F)(F)F)cc2)nc1C | > 7.12 | IC50 (FFLUC_HILL_SLOPE 26.6, FFLUC_R_SQUARED 0.376, read-out: LUCIFERASE INFECTION ASSAY - IC50): > 7.12 µM
4 | Oc1cccnc1NC(c1ccc(Br)cc1)c1ccc2cccnc2c1O (configuration not stated) | 7.73 | IC50 (FFLUC_HILL_SLOPE 24.2, FFLUC_R_SQUARED 0.301, HEPG2TOX_HILL_SLOPE 1.67, HEPG2TOX_R_SQUARED 0.953, PBLUC_HILL_SLOPE 5.65, PBLUC_R_SQUARED 0.637, read-out: LUCIFERASE INFECTION ASSAY - IC50): 5.24 µM
5 | O=C(CSc1nnc(Nc2ccc(SC(F)F)cc2)s1)c1cccs1 | > 10 | IC50 (FFLUC_HILL_SLOPE 26.5, FFLUC_R_SQUARED 0.442, read-out: LUCIFERASE INFECTION ASSAY - IC50): > 10 µM
6 | CCOC(=O)c1sc(SCc2ccccc2)c2c1CC(c1ccc(C)cc1)CC2O (configuration not stated) | > 7.52 | IC50 (FFLUC_HILL_SLOPE 27.4, FFLUC_R_SQUARED 0.148, read-out: LUCIFERASE INFECTION ASSAY - IC50): > 7.52 µM
7 | CCn1c2ccccc2c2cc(NC(=O)COC(=O)CCNS(=O)(=O)c3cccc(C)c3)ccc21 | > 10 | IC50 (FFLUC_HILL_SLOPE 22.4, FFLUC_R_SQUARED 0.497, HEPG2TOX_HILL_SLOPE 9.12, HEPG2TOX_R_SQUARED 0.733, read-out: LUCIFERASE INFECTION ASSAY - IC50): > 10 µM
8 | Cc1nn2c(=O)c(Cc3cccc(Cl)c3)c(C)[nH]c2c1-c1ccccc1 | 2.81 | IC50 (FFLUC_HILL_SLOPE 22.4, FFLUC_R_SQUARED 0.436, HEPG2TOX_HILL_SLOPE 3.67, HEPG2TOX_R_SQUARED 0.334, PBLUC_HILL_SLOPE 3.2, PBLUC_R_SQUARED 0.748, read-out: LUCIFERASE INFECTION ASSAY - IC50): 1.41 µM
9 | C=C1S/C(=N\c2ccccc2OC)N(C(=O)c2c(-c3ccccc3Cl)noc2C)C12CCCCC2 | > 6.5 | IC50 (FFLUC_HILL_SLOPE 28.3, FFLUC_R_SQUARED 0.328, HEPG2TOX_HILL_SLOPE 0.898, HEPG2TOX_R_SQUARED 0.613, PBLUC_HILL_SLOPE 1.13, PBLUC_R_SQUARED 0.144, read-out: LUCIFERASE INFECTION ASSAY - IC50): 3.72 µM
10 | Clc1ccc(C2=NN=C/C2=N\Nc2ccccc2)cc1 | > 11.7 | IC50 (FFLUC_HILL_SLOPE 24, FFLUC_R_SQUARED 0.142, HEPG2TOX_HILL_SLOPE 12.3, HEPG2TOX_R_SQUARED 0.867, PBLUC_HILL_SLOPE 2.49, PBLUC_R_SQUARED 0.792, read-out: LUCIFERASE INFECTION ASSAY - IC50): 5.52 µM
11 | C=S(=O)(NC(=O)CSc1nnc(C(F)(F)F)n1C)c1ccc(Cl)cc1 (configuration not stated) | > 7.99 | IC50 (FFLUC_HILL_SLOPE 23.5, FFLUC_R_SQUARED 0.129, read-out: LUCIFERASE INFECTION ASSAY - IC50): > 7.99 µM
12 | COC(=O)c1cccc(S(=O)(=O)Oc2cc3ccccc3cc2C(=O)Nc2cc(C)ccc2OC)c1 | > 10 | IC50 (FFLUC_HILL_SLOPE 26.2, FFLUC_R_SQUARED 0.533, PBLUC_HILL_SLOPE 4.23, PBLUC_R_SQUARED 0.622, read-out: LUCIFERASE INFECTION ASSAY - IC50): 8.38 µM
13 | CCC(C)c1ccc(-n2c(SCC(=O)N3c4ccccc4CC3C)nc3ccccc3c2=O)cc1 (configuration not stated) | 9.46 | IC50 (FFLUC_HILL_SLOPE 26.9, FFLUC_R_SQUARED 0.3, PBLUC_HILL_SLOPE 22.4, PBLUC_R_SQUARED 0.296, read-out: LUCIFERASE INFECTION ASSAY - IC50): 8.58 µM
14 | Cn1nc(-c2ccc(Cl)cc2)cc1N | > 15.9 | IC50 (FFLUC_HILL_SLOPE 24.2, FFLUC_R_SQUARED 0.094, read-out: LUCIFERASE INFECTION ASSAY - IC50): > 15.9 µM
15 | Cn1c(-c2ccccc2)c(C(Nc2ccccn2)c2ccccc2O)c2ccccc21 (configuration not stated) | > 10 | IC50 (FFLUC_HILL_SLOPE 22.7, FFLUC_R_SQUARED 0.0514, read-out: LUCIFERASE INFECTION ASSAY - IC50): > 10 µM
16 | CC(=O)n1ncc(Sc2ccc(Cl)cc2)c1-c1ccc(Cl)cc1 | > 9.08 | IC50 (FFLUC_HILL_SLOPE 25.1, FFLUC_R_SQUARED 0.0752, read-out: LUCIFERASE INFECTION ASSAY - IC50): > 9.08 µM

Row | Compound | IC90 [µM] | further results
17 | CN(C)c1ccc(C(c2ccc(OC(F)(F)F)cc2)c2ccc(N(C)C)cc2)cc1 | 3.56 | IC50 (FFLUC_HILL_SLOPE 27.2, FFLUC_R_SQUARED 0.132, HEPG2TOX_HILL_SLOPE 6.02, HEPG2TOX_R_SQUARED 0.417, PBLUC_HILL_SLOPE 10.6, PBLUC_R_SQUARED 0.521, read-out: LUCIFERASE INFECTION ASSAY - IC50): 2.89 µM
18 | Cc1cc2oc(=O)cc(CN3CCC(c4c[nH]c5ccccc45)CC3)c2cc1C | > 10 | IC50 (FFLUC_HILL_SLOPE 22.3, FFLUC_R_SQUARED 0.464, read-out: LUCIFERASE INFECTION ASSAY - IC50): > 10 µM
19 | O=C(Nc1nc2ccccn2c1C(=O)NC1CCCC1)c1ccc(F)c(F)c1 | 3.18 | IC50 (FFLUC_HILL_SLOPE 26.5, FFLUC_R_SQUARED 0.0302, HEPG2TOX_HILL_SLOPE 1.05, HEPG2TOX_R_SQUARED 0.954, PBLUC_HILL_SLOPE 2.57, PBLUC_R_SQUARED 0.624, read-out: LUCIFERASE INFECTION ASSAY - IC50): 1.35 µM
20 | CCCCNC(=O)c1c(NC(=O)c2ccc(F)c(F)c2)nc2ccccn12 | 0.748 | IC50 (FFLUC_HILL_SLOPE 25.4, FFLUC_R_SQUARED 0.228, HEPG2TOX_HILL_SLOPE 1.03, HEPG2TOX_R_SQUARED 0.844, PBLUC_HILL_SLOPE 2.52, PBLUC_R_SQUARED 0.719, read-out: LUCIFERASE INFECTION ASSAY - IC50): 0.313 µM
21 | Cc1cc(C)c(C)c(S(=O)(=O)N2CCC(C(=O)Nc3nc(-c4ccc[nH]4)cs3)CC2)c1C | > 10 | IC50 (FFLUC_HILL_SLOPE 22.1, FFLUC_R_SQUARED 0.531, read-out: LUCIFERASE INFECTION ASSAY - IC50): > 10 µM
22 | O=C(N1CCC(C(c2ccccc2)c2ccccc2)CC1)C(Cl)(Cl)Cl | > 8.32 | IC50 (FFLUC_HILL_SLOPE 23.3, FFLUC_R_SQUARED 0.47, HEPG2TOX_HILL_SLOPE 6.45, HEPG2TOX_R_SQUARED 0.799, read-out: LUCIFERASE INFECTION ASSAY - IC50): > 8.32 µM
23 | Cc1ccc2nc(NC(=O)c3cccc(Cl)c3)c(C(=O)NC3CCCC3)n2c1 | 1.47 | IC50 (FFLUC_HILL_SLOPE 23.2, FFLUC_R_SQUARED 0.442, HEPG2TOX_HILL_SLOPE 1.26, HEPG2TOX_R_SQUARED 0.897, PBLUC_HILL_SLOPE 7.29, PBLUC_R_SQUARED 0.437, read-out: LUCIFERASE INFECTION ASSAY - IC50): 1.09 µM
24 | Cc1c(C(=O)N2CCCCC2)sc2nc(-c3ccc(Cl)cc3)nn12 | 8.36 | IC50 (FFLUC_HILL_SLOPE 28.1, FFLUC_R_SQUARED 0.294, PBLUC_HILL_SLOPE 1.44, PBLUC_R_SQUARED 0.531, read-out: LUCIFERASE INFECTION ASSAY - IC50): 1.82 µM
25 | Cc1ccc(N2C(=O)/C(=C/c3ccc(C(C)C)cc3)N=C2SCC(=O)C23CC4CC(CC(C4)C2)C3)cc1 | > 10 | IC50 (FFLUC_HILL_SLOPE 28, FFLUC_R_SQUARED 0.571, PBLUC_HILL_SLOPE 16, PBLUC_R_SQUARED 0.0407, read-out: LUCIFERASE INFECTION ASSAY - IC50): 9.9 µM
26 | Cc1[nH]c2ccc(C(=O)Nc3ccc(N4CCOCC4)nc3)cc2c1C | > 10 | IC50 (FFLUC_HILL_SLOPE 22.7, FFLUC_R_SQUARED 0.475, read-out: LUCIFERASE INFECTION ASSAY - IC50): > 10 µM
27 | CCc1ccc(/C=C/c2ccc3cccc(O)c3n2)cc1 | 0.313 | IC50 (FFLUC_HILL_SLOPE 27.9, FFLUC_R_SQUARED 0.597, HEPG2TOX_HILL_SLOPE 1.09, HEPG2TOX_R_SQUARED 0.82, PBLUC_HILL_SLOPE 3.2, PBLUC_R_SQUARED 0.533, read-out: LUCIFERASE INFECTION ASSAY - IC50): 0.157 µM
28 | Cc1cccc(Oc2ccc(NC(=O)c3cccc(S(=O)(=O)N(C)C4CCCCC4)c3)cc2)c1 | 9.44 | IC50 (FFLUC_HILL_SLOPE 23.3, FFLUC_R_SQUARED 0.81, HEPG2TOX_HILL_SLOPE 1.26, HEPG2TOX_R_SQUARED 0.904, PBLUC_HILL_SLOPE 3.5, PBLUC_R_SQUARED 0.0916, read-out: LUCIFERASE INFECTION ASSAY - IC50): 5.04 µM
29 | O=[N+]([O-])c1ccc(Sc2nc(-c3ccccc3)c(-c3ccccc3)[nH]2)cc1 | > 8.84 | IC50 (FFLUC_HILL_SLOPE 23.8, FFLUC_R_SQUARED 0.615, read-out: LUCIFERASE INFECTION ASSAY - IC50): > 8.84 µM
30 | COc1ccc(C(=O)Nc2ccc3nc(-c4ccccc4)nn3c2)cc1F | > 10 | IC50 (FFLUC_HILL_SLOPE 22.9, FFLUC_R_SQUARED 0.117, read-out: LUCIFERASE INFECTION ASSAY - IC50): > 10 µM
31 | COc1ccc(S(=O)(=O)N2CCCCC2)cc1NC(=O)c1nn(CC(C)C)c(=O)c2ccccc12 | 4.38 | IC50 (FFLUC_HILL_SLOPE 27.6, FFLUC_R_SQUARED 0.604, PBLUC_HILL_SLOPE 11.9, PBLUC_R_SQUARED 0.273, read-out: LUCIFERASE INFECTION ASSAY - IC50): 3.64 µM

— ChEMBL document CHEMBL4483862, “Open-source discovery of chemical leads for next-generation chemoprotective antimalarials” (2018)
